The record followed here is patent EP4772510A2, “BENZAZEPINONE COMPOUND AND USE THEREOF” (HANGZHOU BIO-SINCERITY PHARMA-TECHCO., LTD., priority 2023, dated 2025).

Experiment [1] deals with U937 cells. In words: Inhibition of TNF-α-induced necroptosis of U937 cells (CCK-8 assay). In kind it is cell-based, human. The conditions noted are these: Homo sapiens, U-937, TNF-α 20 ng/mL + BV6 2 µM + Z-VAD-FMK 20 µM, 18 h. The source says: Example 56: Inhibition of TNF-α-Induced Necroptosis of U937 Cells by Compounds
• 1. Experimental reagents: RPMI-1640 culture medium, fetal bovine serum, penicillin-streptomycin, TNF-α (MCE, HY-P7058), BV6 (MCE, HY-16701), Z-VAD-FMK (MCE, HY-16658B), and CCK-8 (Dalian Meilun Biotech Co., Ltd., MA0218). • 2. Experimental instruments: medical low-temperature freezer (Thermo Fisher scientific, 902-ULTS), electrically heated thermostatic water bath (Shanghai Bluepard Instruments Co., Ltd., CD-420), low-speed centrifuge (ANHUI USTC Zonkia Scientific Instruments Co., Ltd, SC-3616), carbon dioxide incubator (Shanghai Bluepard Instruments Co., Ltd., BPN-150CH(UV)), inverted microscope (Olympus, CKX53), multi-functional microplate reader (Thermo Tecan, SPARK), class-II biosafety cabinet (AIRTECH, BSC-1304IIA2), and desktop cell counter (Thermo Fisher Scientific, Countess II). • 3. Cell culturing: U937 cells (human histiocytic lymphoma cells) were cultured in an RPMI-1640 culture solution containing 10% fetal bovine serum and 1% penicillin-streptomycin solution in a 5% CO2 incubator at 37 °C and a saturated humidity. The cell culture flask was vertically placed in the incubator. A T25 culture flask was used as an example, the culture solution in the flask was 6-8 mL, and culture medium changes and cell passaging were performed 3-4 times a week. • 4. […] The culture medium was taken out from the freezer and transferred to the water bath for pre-heating. An appropriate amount of culture medium was then taken for use. • (2) The cell suspension was transferred to a 15 mL sterile centrifuge tube and centrifuged at 850 rpm for 4 min to collect U937 cells. • (3) The supernatant was carefully discarded, and an appropriate amount of culture medium was added. The mixture was gently pipetted using a pipette to homogenize the cells and thus prepare a single-cell suspension, and the cells were counted. • (4) The cells were diluted to 4 × 10^5/mL and seeded into a 96-well plate at 90 µL/well, such that the cell density in the 96-well plate was 3.6 × 10 ^4 cells/well. The cells were incubated in a 5% CO 2 incubator at 37 °C and a saturated humidity for 6 h, followed by the addition of compounds. • 4.2 Dilution and addition of compounds: • (1) TNF-α was dissolved in PBS to obtain a 100 µg/mL stock solution and aliquoted; Z-VAD-FMK was dissolved in DMSO to obtain a 10 mM stock solution and aliquoted; BV6 was dissolved in DMSO to obtain a 10 mM stock solution and aliquoted; GSK2982772 was dissolved in DMSO to obtain a 10 mM stock solution and aliquoted. One aliquot of each stock solution was stored at -20 °C for immediate use, while the remaining aliquots were stored at - 80 °C and used within their shelf life. • (2) RPMI-1640 culture medium containing TNF-α, BV6, and Z-VAD-FMK was prepared (5 µL/per well), such that the final concentrations of TNF-α, BV6, and Z-VAD-FMK were 20 ng/mL, 2 µM, and 20 µM, respectively. • (3) Each target compound was three-fold diluted with a culture medium to 8 concentration gradients, with each concentration set in duplicate (5 µL/well). The final concentrations of each target compound were 1000.00/333.33/111.11/37.04/12.35/4.12/1.37/0.46 nM. • (4) The 96-well plate containing 90 µL of cell suspension was taken out from an incubator, and a positive control group, test compound groups, and a DMSO (5‰) control group were set. 5 µL of RPMI-1640 culture solution containing TNF-α, BV6, and Z-VAD-FMK and 5 µL of culture solution containing the test compound were added to the positive control group and the test compound groups. After compound addition, the mixtures were cultured for 18 h, followed by the CCK-8 assay. • (5) The 96-well plate was taken out, and the CCK-8 reagent was carefully added at 10 µL/well. The mixtures were incubated at 37 °C for 2-4 h, and the absorbance value was measured at a wavelength of 450 nm. • 5. Evaluation of inhibitory activity of compounds on TNF-α-induced necroptosis of U937 [formula] […]
For orientation: Tetrazolium dyes change colour on reduction, which living cells bring about.

The subject of experiment [2] is HT-29 cells. The experiment is described as follows: Inhibition of TNF-α-induced necroptosis of HT-29 cells (SRB method). In kind it is cell-based, human. The conditions noted are these: Homo sapiens, HT-29, TNF-α 20 ng/mL + BV6 2 µM + Z-VAD-FMK 20 µM, 18 h. The source says:
Example 57: Inhibition of TNF-α-Induced Necroptosis of HT-29 Cells by Compounds
• 1. Experimental reagents: McCOY's 5A culture medium, fetal bovine serum, penicillin-streptomycin, trypsin, PBS, TNF-α (MCE, HY-P7058), BV6 (MCE, HY-16701), Z-VAD-FMK (MCE, HY-16658B), SRB kit (Shanghai BestBio Biotechnology Co., Ltd., BB-4208-500T). • 2. Experimental instruments: medical low-temperature freezer (Thermo Fisher scientific, 902-ULTS), electrically heated thermostatic water bath (Shanghai Bluepard Instruments Co., Ltd., CD-420), low-speed centrifuge (ANHUI USTC Zonkia Scientific Instruments Co., Ltd, SC-3616), carbon dioxide incubator (Shanghai Bluepard Instruments Co., Ltd., BPN-150CH(UV)), inverted microscope (Olympus, CKX53), multi-functional microplate reader (Thermo Tecan, SPARK), class-II biosafety cabinet (AIRTECH, BSC-1304IIA2), and desktop cell counter (Thermo Fisher Scientific, Countess II). • 3. Cell culturing: HT-29 cells (human colon cancer cells) were cultured in a McCOY's 5A culture solution containing 10% fetal bovine serum and 1% penicillin-streptomycin solution in a 5% CO 2 at 37 °C and a saturated humidity, and culture medium changes and cell passaging were performed 3-4 times a week. • 4. […] The culture medium, trypsin, etc., were taken out from the freezer and transferred to the water bath for pre-heating. An appropriate amount of these substances was then taken for use. • (2) The old culture medium in the flask was aspirated using a sterile pipette and discarded, and the cells were washed 3 times with PBS. 1 mL of trypsin (25 cm^2 cell culture flask) was added into the flask, and the flask was gently shaken to allow the trypsin to cover all the cell surfaces. Digestion was performed in an incubator at 37 °C. After 2 min of digestion, the flask was placed under a microscope for observation. […] The mixture was gently pipetted using a pipette to homogenize the cells and thus prepare a single-cell suspension, and the cells were counted. • (5) The cells were diluted to 3 × 10^5/mL and seeded into a 96-well plate at 100 µL/well, such that there were 3 × 10^4 cells per well in the 96-well plate. The cells were incubated in a 5% CO2 incubator at 37 °C and a saturated humidity for 24 h, followed by the addition of compounds. • 4.2 Dilution and addition of compounds: • (1) TNF-α was dissolved in PBS to obtain a 100 µg/mL stock solution and aliquoted; Z-VAD-FMK was dissolved in DMSO to obtain a 10 mM stock solution and aliquoted; BV6 was dissolved in DMSO to obtain a 10 mM stock solution and aliquoted; GSK2982772 was dissolved in DMSO to obtain a 10 mM stock solution and aliquoted. One aliquot of each stock solution was stored at -20 °C for immediate use, while the remaining aliquots were stored at - 80 °C and used within their shelf life. • (2) McCOY's 5A culture solution containing TNF-α, BV6, and Z-VAD-FMK was prepared. For the positive control group and the test compound groups, the McCOY's 5A culture solution was added at 90 µL/well, and 10 µL of the culture medium containing the test compound was also added, thus making the final concentrations of TNF-α, BV6, and Z-VAD-FMK be 20 ng/mL, 2 µM, and 20 µM, respectively. For the DMSO (5‰) control group, 90 µL of the McCOY's 5A complete culture solution was added, and then 10 µL of DMSO was added, thus making the final concentration 5‰. • (3) Each target compound was three-fold diluted with a culture medium to 8 concentration gradients, with each concentration set in duplicate (10 µL/well). The final concentrations of each target compound were 1000.00/333.33/111.11/37.04/12.35/4.12/1.37/0.46 nM. • (4) The 96-well plate cultured for 24 h was taken out from the incubator, and the culture medium in the 96-well plate was carefully aspirated and discarded. A positive control group, test compound groups, and a DMSO (5‰) control group were set, and 10 µL of the corresponding compound was added to each group. […]
On the technique in general: In SRB staining, fixed cells bind dye roughly in proportion to their protein.

The EC50 is the concentration at which the effect is half-maximal.

SMILES strings stand for the structures.

On to `O=C(NC1CCc2cc(C#CC3CC3)cc3c2N(CC3)C1=O)c1nnc(Cc2ccccc2)[nH]1` (stereo not shown) [Compound I-1, 5-benzyl-N-(9-(cyclopropylethynyl)-4-oxo-1,2,3,4,6,7-hexahydroazepino[3,2,1-hi]indol-3-yl)-4H-1,2,4-triazole-3-carboxamide], for which the figures for the EC50 in experiment [1] and in experiment [2] were greater than 200 nM and 100 to 200 nM, respectively.
With `O=C(NC1CCc2cc(C#Cc3ccccn3)cc3c2N(CC3)C1=O)c1nnc(Cc2ccccc2)[nH]1` (stereo not shown) [Compound I-2, 5-benzyl-N-(4-oxo-9-(pyridin-2-ylethynyl)-1,2,3,4,6,7-hexahydroazepino[3,2,1-hi]indol-3-yl)-4H-1,2,4-triazole-3-carboxamide], the EC50 was in the range of 100 to 200 nM in experiment [1] and 10 to 100 nM in experiment [2].
Regarding `O=C(NC1CCc2cc(C#Cc3cccnc3)cc3c2N(CC3)C1=O)c1nnc(Cc2ccccc2)[nH]1` (stereo not shown) [Compound I-3, 5-benzyl-N-(4-oxo-9-(pyridin-3-ylethynyl)-1,2,3,4,6,7-hexahydroazepino[3,2,1-hi]indol-3-yl)-4H-1,2,4-triazole-3-carboxamide], the results for the EC50 in experiment [1] and in experiment [2] were 100 to 200 nM and 10 to 100 nM, respectively.
Regarding `O=C(NC1CCc2cc(C#Cc3ccncc3)cc3c2N(CC3)C1=O)c1nnc(Cc2ccccc2)[nH]1` (stereo not shown) [Compound I-4, 5-benzyl-N-(4-oxo-9-(pyridin-4-ylethynyl)-1,2,3,4,6,7-hexahydroazepino[3,2,1-hi]indol-3-yl)-4H-1,2,4-triazole-3-carboxamide], the EC50 in experiment [1] and in experiment [2] was 100 to 200 nM in each case.
Regarding `Cn1cc(C#Cc2cc3c4c(c2)CCN4C(=O)C(NC(=O)c2nnc(Cc4ccccc4)[nH]2)CC3)cn1` (stereo not shown) [Compound I-5, 5-benzyl-N-(9-((1-methyl-1H-pyrazol-4-yl)ethynyl)-4-oxo-1,2,3,4,6,7-hexahydroazepino[3,2,1-hi]indol-3-yl)-4H-1,2,4-triazole-3-carboxamide], the EC50 in experiment [1] was in the range of 10 to 100 nM; in experiment [2], 100 to 200 nM.
Regarding `O=C(NC1CCc2cc(C#CC3CCOCC3)cc3c2N(CC3)C1=O)c1nnc(Cc2ccccc2)[nH]1` (stereo not shown) [Compound I-6, 5-benzyl-N-(4-oxo-9-((tetrahydro-2H-pyran-4-yl)ethynyl)-1,2,3,4,6,7-hexahydroazepino[3,2,1-hi]indol-3-yl)-4H-1,2,4-triazole-3-carboxamide], the 50% effective concentration (EC50) in experiment [1] and in experiment [2] was 10 to 100 nM throughout.
For the compound `CC(C)(O)C#Cc1cc2c3c(c1)CCN3C(=O)C(NC(=O)c1nnc(Cc3ccccc3)[nH]1)CC2` (stereo not shown) [Compound I-7, 5-benzyl-N-(9-(3-hydroxy-3-methylbut-1-yn-1-yl)-4-oxo-1,2,3,4,6,7-hexahydroazepino[3,2,1-hi]indol-3-yl)-4H-1,2,4-triazole-3-carboxamide], the EC50 in experiment [1] is 100 to 200 nM; in experiment [2], greater than 200 nM.
`O=C(NC1CCc2cc(C#Cc3ccncc3)cc3c2N(CC3)C1=O)c1nnc(Cc2ccc(F)cc2)[nH]1` (stereo not shown) [Compound I-8, 5-(4-fluorobenzyl)-N-(4-oxo-9-(pyridin-4-ylethynyl)-1,2,3,4,6,7-hexahydroazepino[3,2,1-hi]indol-3-yl)-4H-1,2,4-triazole-3-carboxamide]: the EC50 in experiment [1] and in experiment [2] was greater than 200 nM throughout.
As for `O=C(NC1CCc2cc(C#Cc3ccncc3)cc3c2N(CC3)C1=O)c1nnc(Cc2ccc(Cl)cc2)[nH]1` (stereo not shown) [Compound I-9, 5-(4-chlorobenzyl)-N-(4-oxo-9-(pyridin-4-ylethynyl)-1,2,3,4,6,7-hexahydroazepino[3,2,1-hi]indol-3-yl)-4H-1,2,4-triazole-3-carboxamide], the EC50 in experiment [1] and in experiment [2] was greater than 200 nM in each case.
With `O=C(NC1CCc2cc(C#Cc3ccncc3)cc3c2N(CC3)C1=O)c1nnc(Cc2ccccc2Cl)[nH]1` (stereo not shown) [Compound I-10, 5-(2-chlorobenzyl)-N-(4-oxo-9-(pyridin-4-ylethynyl)-1,2,3,4,6,7-hexahydroazepino[3,2,1-hi]indol-3-yl)-4H-1,2,4-triazole-3-carboxamide], the EC50 in experiment [1] was 100 to 200 nM; in experiment [2], greater than 200 nM.
Take `O=C(NC1CCc2cc(C#Cc3ccncc3)cc3c2N(CC3)C1=O)c1nnc(Cc2ccccc2F)[nH]1` (stereo not shown) [Compound I-11, 5-(2-fluorobenzyl)-N-(4-oxo-9-(pyridin-4-ylethynyl)-1,2,3,4,6,7-hexahydroazepino[3,2,1-hi]indol-3-yl)-4H-1,2,4-triazole-3-carboxamide]: the EC50 in experiment [1] and in experiment [2] was 100 to 200 nM each time.
